In patent US12643879B2, “Functionalized heterocyclic compounds as modulators of stimulator of interferon genes (STING)” (RYVU THERAPEUTICS S.A., priority 2019, dated 2026):
Counter-ions that a name gives are not always drawn. Like-named read-outs stand apart in the source and are kept apart here.

Assays:
[1] = test system: NF-κB pathway in THP-1 dual cells; experiment: THP-1 Dual reporter assay, NF-κB pathway (SEAP); type: cell-based; details: Homo sapiens, THP1-Dual, read-out: THP1 Dual EC50 (μM) NFkB
In short: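 After 18 h exposure of THP-1 dual cells to the STING agonist compounds, culture medium was collected. Part was mixed with luminescence reagent and read at once for IRF-driven luciferase; another part was incubated with SEAP detection medium for 1 or 2 hours at 37° C before absorbance at 630 or 655 nm.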

human STING = human STING (Homo sapiens, UniProt Q86WV6); experiment: Fluorescence Thermal Shift assay (binding to STING); details: STING 0.1 mg/mL, SyproOrange, 25 to 99° C.
Description: Compounds, constructs and conjugates of the present invention were tested for binding to human STING in Fluorescence Thermal Shift assay. STING was preincubated with the compounds for 20 minutes in 50 mM Hepes, 150 mM NaCl, pH 7.5 in 15 or 16 μl volume, following by adding 4 μl of SyproOrange dye dilution (ThermoFisher, cat no. S-6651). Final STING concentration was 0.1 mg/mL. Thermal unfolding was performed in Real-Time PCR QuantStudio 6 Flex System (Applied Biosystems), from 25 to 99° C., with continuous ramp mode and ramp rate 0.033° C./s. The data were analyzed using Protein Thermal Shift Software (ThermoFisher).

[2] = test system: interferon regulatory factor (IRF) pathway in THP-1 dual cells; experiment: THP-1 Dual reporter assay, IRF pathway (luciferase); type: cell-based; details: Homo sapiens, THP1-Dual, read-out: THP1 Dual EC50 (μM) IRF
In short: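 IRF output: ISRE-ISG54 luciferase in collected medium, luminescence measured immediately on reagent addition. NF-κB output: SEAP under NF-κB-element IFN-β promoter, detection medium 1 or 2 h at 37° C, absorbance 630 or 655 nm. Cells were stimulated with STING agonist for 18 h beforehand.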

[3] = 18 h stimulation, absorbance at 630 or 655 nm

human STING, sequence (Q86WV6 whole entry H232R): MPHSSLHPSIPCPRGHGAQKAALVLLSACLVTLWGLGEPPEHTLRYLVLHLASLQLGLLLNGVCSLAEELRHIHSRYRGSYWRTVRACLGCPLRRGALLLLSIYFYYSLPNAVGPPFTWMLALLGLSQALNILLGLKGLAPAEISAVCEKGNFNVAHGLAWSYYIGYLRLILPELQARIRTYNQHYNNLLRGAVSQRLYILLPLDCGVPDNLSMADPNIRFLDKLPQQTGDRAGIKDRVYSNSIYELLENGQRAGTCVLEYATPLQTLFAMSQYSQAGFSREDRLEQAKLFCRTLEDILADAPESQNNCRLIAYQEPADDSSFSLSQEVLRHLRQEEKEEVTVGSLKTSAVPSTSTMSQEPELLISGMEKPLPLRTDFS

SMILES | EC50 [1, 3] [µM] | hSTING FTS binding assay (ΔT C. °) (human STING) | EC50 ([2]; 18 h stimulation, luminescence) [µM] | EC50 ([1]; 18 h) [µM] | EC50 ([2]; 18 h) [µM]
Cc1ccc(N2CCC[C@H](N(Cc3ccnc(C)c3)Cc3cn(C4CC4)c4nc(N5CC[C@@H](O)C5)c(F)cc4c3=O)C2)cn1.Cl [Example 37, 1-cyclopropyl-6-fluoro-7-[(3R)-3-hydroxypyrrolidin-1-yl]-3-({[(3S)-1-(6-methylpyridin-3-yl)piperidin-3-yl][(2-methylpyridin-4-yl)methyl]amino}methyl)-1,4-dihydro-1,8-naphthyridin-4-one hydrochloride] | < 1 | +++ (+++=ΔTm ≥20° C.) | < 1 | – | –
Cc1cc(CN(Cc2cn(C(C)C)c3ccccc3c2=O)[C@H]2CCCN(c3ccc(N)nc3)C2)ccn1.Cl [Example 34, 3-({[(3S)-1-(6-aminopyridin-3-yl)piperidin-3-yl][(2-methylpyridinyl-4-yl)methyl]amino}methyl)-1-(propan-2-yl)-1,4-dihydroquinolin-4-one hydrochloride] | < 1 | +++ (+++=ΔTm ≥20° C.) | < 1 | – | –
Cc1ccc(N2CCC[C@H](N(Cc3ccnc(C)c3)Cc3cn(C4CC4)c4cc(NC(=O)CN)c(F)cc4c3=O)C2)cn1 [Example 25, 2-amino-N-[1-cyclopropyl-6-fluoro-3-({[(3S)-1-(6-methylpyridin-3-yl)piperidin-3-yl][(2-methylpyridin-4-yl)methyl]amino}methyl)-4-oxo-1,4-dihydroquinolin-7-yl]acetamide] | – | +++ (+++=ΔTm ≥20° C.) | – | – | –
Cc1ccc(N2CCC[C@H](N(Cc3ccnc(C)c3)Cc3cn(C4CC4)c4cc(N5CCC[C@@H](N)C5)c(F)cc4c3=O)C2)cn1 [Example 17, 7-[(3R)-3-Aminopiperidin-1-yl]-1-cyclopropyl-6-fluoro-3-({[(3S)-1-(6-methylpyridin-3-yl)piperidin-3-yl][(2-methylpyridin-4-yl)methyl]amino}methyl)-1,4-dihydroquinolin-4-one] | < 1 | +++ (+++=ΔTm ≥20° C.) | < 1 | – | –
CN[C@@H]1CCN(c2cc3c(cc2F)c(=O)c(CN(Cc2ccnc(C)c2)[C@H]2CCCN(c4ccc(C)nc4)C2)cn3C2CC2)C1.Cl [Example 55, 1-Cyclopropyl-6-fluoro-7-[(3R)-3-(methylamino)pyrrolidin-1-yl]-3-({[(3S)-1-(6-methylpyridin-3-yl)piperidin-3-yl][(2-methylpyridin-4-yl)methyl]amino}methyl)-1,4-dihydroquinolin-4-one hydrochloride] | < 1 | +++ (+++=ΔTm ≥20° C.) | < 1 | – | –
Cc1ccc(N2CCC[C@H](N(Cc3ccnc(C)c3)Cc3cn(C)c4cc(N5CCC(N)CC5)ccc4c3=O)C2)cn1.Cl [Example 6, 7-(4-Aminopiperidin-1-yl)-1-methyl-3-({[(3S)-1-(6-methylpyridin-3-yl)piperidin-3-yl][(2-methylpyridin-4-yl)methyl]amino}methyl)-1,4-dihydroquinolin-4-one hydrochloride] | 1 to 10 | ++ (++=10<ΔTm <20° C.) | 1 to 10 | – | –
Cc1cc(CN(Cc2cn(C3COC3)c3ccccc3c2=O)[C@H]2CCCN(c3ccc(N)nc3)C2)ccn1 [Example 35, 3-({[(3S)-1-(6-aminopyridin-3-yl)piperidin-3-yl][(2-methylpyridin-4-yl)methyl]amino}methyl)-1-(oxetan-3-yl)-1,4-dihydroquinolin-4-one] | < 1 | +++ (+++=ΔTm ≥20° C.) | < 1 | – | –
Cc1ccc(N2C[C@@H](F)C[C@H](N(Cc3ccnc(C)c3)Cc3cn(C4CC4)c4cc(OCCO)c(F)cc4c3=O)C2)cn1 [Example 75, 1-cyclopropyl-6-fluoro-3-({[(3S,5S)-5-fluoro-1-(6-methylpyridin-3-yl)piperidin-3-yl][(2-methylpyridin-4-yl)methyl]amino}methyl)-7-(2-hydroxyethoxy)-1,4-dihydroquinolin-4-one] | < 1 | +++ (+++=ΔTm ≥20° C.) | < 1 | – | –
Cc1cc(CN(Cc2cn(C(C)C)c3cc(F)c(F)cc3c2=O)[C@H]2CCCN(c3ccc(N)nc3)C2)ccn1.Cl [Example 24, 3-({[(3)-1-(6-aminopyridin-3-yl)piperidin-3-yl][(2-methylpyridin-4-yl)methyl]amino}methyl)-6,7-difluoro-1-(propan-2-yl)-1,4-dihydroquinolin-4-one hydrochloride] | – | +++ (+++=ΔTm ≥20° C.) | – | – | –
Cc1ccc(N2CCC[C@H](N(Cc3ccnc(C)c3)Cc3cn(C4CC4)c4cc(N5CC[C@@H](N)C(F)(F)C5)c(F)cc4c3=O)C2)cn1.Cl (single isomer, unassigned) [Example 56] | – | +++ (+++=ΔTm ≥20° C.) | – | – | –
Cc1cc(CN(Cc2cn(C)c3ccccc3c2=O)[C@H]2CCCN(c3ccc(CCO)nc3)C2)ccn1 [Example 43, 3-({[(3S)-1-[6-(2-hydroxyethyl)pyridin-3-yl]piperidin-3-yl][(2-methylpyridin-4-yl)methyl]amino}methyl)-1-methyl-1,4-dihydroquinolin-4-one] | – | – | – | 1 to 10 | 1 to 10
Cc1cc(CN(Cc2c[nH]c3ccccc3c2=O)[C@H]2CCCN(c3ccc(N)nc3)C2)ccn1 [Example 38, 3-({[(3S)-1-(6-aminopyridin-3-yl)piperidin-3-yl][(2-methylpyridin-4-yl)methyl]amino}methyl)-1,4-dihydroquinolin-4-one] | < 1 | – | < 1 | – | –
Cc1cc(CN(Cc2cn(C3CC3)c3cc(OCCO)c(F)cc3c2=O)[C@H]2CCCN(c3ccc(N(C)C)nc3)C2)ccn1 [Example 92, 1-cyclopropyl-3-({[(3S)-1-[6-(dimethylamino)pyridin-3-yl]piperidin-3-yl][(2-methylpyridin-4-yl)methyl]amino}methyl)-6-fluoro-7-(2-hydroxyethoxy)-1,4-dihydroquinolin-4-one hydrochloride] | < 1 | – | < 1 | – | –
Cc1cc(CN(Cc2cn(C3CC3)c3cc(OCCO)c(F)cc3c2=O)[C@H]2CCCN(c3cnc(C)c(F)c3)C2)ccn1 [Example 83, 1-cyclopropyl-6-fluoro-3-({[(3S)-1-(5-fluoro-6-methylpyridin-3-yl)piperidin-3-yl][(2-methylpyridin-4-yl)methyl]amino}methyl)-7-(2-hydroxyethoxy)-1,4-dihydroquinolin-4-one] | < 1 | – | < 1 | – | –
Cc1ccc(N2CCC[C@H](N(Cc3ccnc(C)c3)Cc3cn(C4CC4)c4cc(OCCN(C)C(=O)CCOCCOCCOCCN)c(F)cc4c3=O)C2)cn1 [Example 11B, 3-{2-[2-(2-aminoethoxy)ethoxy]ethoxy}-N-(2-{[1-cyclopropyl-6-fluoro-3-({[(3S)-1-(6-methylpyridin-3-yl)piperidin-3-yl][(2-methylpyridin-4-yl)methyl]amino}methyl)-4-oxo-1,4-dihydroquinolin-7-yl]oxy}ethyl)-N-methylpropanamide] | 1 to 10 | – | 1 to 10 | – | –
Cc1cc(CN(Cc2cn(C3CC3)c3cc(N4CCC[C@H](O)C4)c(F)cc3c2=O)[C@H]2CCCN(c3cnccn3)C2)ccn1 [Example 98, 1-cyclopropyl-6-fluoro-7-[(3S)-3-hydroxypiperidin-1-yl]-3-({[(2-methylpyridin-4-yl)methyl][(3S)-1-(pyrazin-2-yl)piperidin-3-yl]amino}methyl)-1,4-dihydroquinolin-4-one hydrochoride] | < 1 | – | < 1 | – | –
Cc1ccc(N2CCC[C@H](N(Cc3ccnc(C)c3)Cc3cn(C4CC4)c4cc(N5CC[C@@H](N(C)C(=O)CCOCCOCCOCCNC(=O)OC(C)(C)C)C5)c(F)cc4c3=O)C2)cn1 [Example 55C, tert-Butyl N-(2-{2-[2-(2-{[(3R)-1-[1-cyclopropyl-6-fluoro-3-({[(3S)-1-(6-methylpyridin-3-yl)piperidin-3-yl][(2-methylpyridin-4-yl)methyl]amino}methyl)-4-oxo-1,4-dihydroquinolin-7-yl]pyrrolidin-3-yl](methyl)carbamoyl}ethoxy)ethoxy]ethoxy}ethyl)carbamate] | < 1 | – | < 1 | – | –
Cc1ccc(N2CCC[C@H](N(Cc3ccnc(C)c3)Cc3cn(C4CC4)c4cc(N5CCO[C@@H](CO)C5)c(F)cc4c3=O)C2)cn1 (single isomer, unassigned) [Example 72] | < 1 | – | < 1 | – | –
Cc1cc(CN(Cc2cn(C3CC3)c3cc(OCCO)c(F)cc3c2=O)[C@H]2CCCN(c3cccnn3)C2)ccn1 [Example 96, 1-cyclopropyl-6-fluoro-7-(2-hydroxyethoxy)-3-({[(2-methylpyridin-4-yl)methyl][(3S)-1-(pyridazin-3-yl)piperidin-3-yl]amino}methyl)-1,4-dihydroquinolin-4-one] | > 10 | – | 1 to 10 | – | –
C#CCOCCOCCOCCOCCOCCC(=O)Nc1ccc(CNC(=O)OCCOc2cc3c(cc2F)c(=O)c(CN(Cc2ccnc(C)c2)[C@H]2CCCN(c4cccnc4)C2)cn3C2CC2)cc1 [Example 84A, 2-{[1-cyclopropyl-6-fluoro-3-({[(2-methylpyridin-4-yl)methyl][(3S)-1-(pyridin-3-yl)piperidin-3-yl]amino}methyl)-4-oxo-1,4-dihydroquinolin-7-yl]oxy}ethyl N-{[4-(4,7,10,13,16-pentaoxanonadec-18-ynamido)phenyl]methyl}carbamate] | < 1 | – | < 1 | – | –
